{"source": "patent US20230132973A1", "about": "“DIHYDRO-SPIRO[INDOLINE-3:1'-iSOQUINOLIN]-2-ONES AS ANTIMALARIAL AGENTS” (The University of Buea, priority 2020, published 2023)", "key": {"[1]": {"system": "Human Liposarcoma (SW872) cells", "test": "MTT cell proliferation (cytotoxicity) assay, SW872 cells", "format": "cell-based", "method": "By principle, the soluble MTT is reduced to an insoluble colored formazan product by mitochondrial succinate dehydrogenase in viable cells. Normal African Green Monkey Kidney Epithelial (Vero) and the Human Liposarcoma (SW872) cells were maintained in MEM supplemented with 10% FBS, 1% Glutamine and 1% penicillin-streptomycin. Confluent cells were trypsinized and seeded at a density of 2500 cells/well (total volume 90 μL) in 96-well plates and incubated for 24 h prior to drug treatment. Two-fold serial dilutions of the compounds (100-0.0488 μM) were added to the plates and incubated under humidified conditions at 37° C. for 48 h. Absorbance of the formed formazan product was measured at 550 nm wavelength using a SUNRISE microtiter plate reader. […] Selectivity indices (SI=CC50/EC50) were calculated as an indication of toxicity relative to the observed antiplasmodial activity."}, "[2]": {"system": "asexual blood stages of P. falciparum", "test": "Life cycle stage specific action by microscopy of Giemsa-stained thin smears", "format": "cell-based, Plasmodium falciparum", "conditions": "10 μM, 24 h, listed as (±)-moxiquindole", "method": "The life cycle stage specific action of (±)-moxiquindole was determined by treatment of parasites at different time points followed by microscopic analysis of Giemsa-stained thin blood smears. Stage proportions were calculated for each asexual parasite stage in the drug treated wells relative to the same stage in the negative control wells.\nThe inhibitory effects of active compounds or reference drugs on parasite development and schizont rupture were determined by quantitative light microscopy as previously described (Lee et al., 2015). Briefly, synchronized cultures (1.5% hematocrit and 3% parasitemia) at different time-points (early rings, mid trophozoites and schizonts) were treated with either test compound or controls at 10 μM final concentration for 24 h under regular culture conditions. Following treatment, Giemsa-stained thin smears were prepared and parasites were counted in 1,000 erythrocytes per treatment. Stage proportions in test wells relative to solvent control wells were calculated and used to assess the in vitro effects of each compound on trophozoites and schizont development as well as merozoite egress and invasion."}, "[3]": {"system": "vacuolar lipid dynamics in P. falciparum", "test": "Effect on vacuolar lipid dynamics (Oil Red O staining)", "format": "cell-based, Plasmodium falciparum", "conditions": "trophozoite stage parasites, 24 h", "method": "Because cellular vacuolation may result from perturbation of intracellular lipid content, we investigated the effect of (±)-moxiquindole on vacuolar lipid dynamics using fluorescent Oil red O as lipid stain.\nThe effect of the compounds on intracellular lipid dynamics was assessed by measurement of intracellular lipid content using Oil Red O. Briefly, early rings or late trophozoite stage parasites (30 hpi) were treated with the compounds or controls for 24 h under regular culture conditions. Following treatment, inhibitors were removed by centrifugation at 2500 rpm for 5 min and pellets were washed in equal volumes of 1×PBS. The parasites were fixed with 4% paraformaldehyde for 30 min at room temperature and pelleted at 2500. Three volumes of Oil Red O (ORO) stock solution (5 mg/mL in 100% isopropanol) were diluted in two volumes of distilled water and filtered prior to use. About 100 μL of the ORO were added to parasite pellets in the tube and incubated for 30 minutes. Parasites were pelleted and washed twice in distilled water. Thereafter, parasites were deposited on pre-cleaned coverslips and air dried. Dried coverslips were mounted in DAPI antifade reagent onto cleaned slides, air dried and viewed under a 100× oil immersion lens and images acquired using a Leica DM1000 fluorescence microscope suite (LAS version 4.5)."}}, "note": "Entries after “also recorded” stand apart in the source; their conditions may differ.", "data": [{"smiles": "COc1cc2c(cc1OC)C1(NCC2)C(=O)Nc2ccc(Cl)cc21", "note": "(centres unmarked) [Compound 8b]", "values": [{"measurement": "CC50", "setting": "[1]; SW872, MTT", "result": "> 100", "unit": "µM"}, {"measurement": "cell viability", "setting": "[1]; SW872, up to 100 μM compound concentration, 48 h", "result": "no significant decrease in cell viability"}, {"measurement": "stage specific action on asexual blood stages (ring, trophozoite, schizont)", "setting": "[2]; treated at early ring, mid-trophozoite or mid-schizont", "result": "multi-stage active; also recorded: exhibits inhibitory activities against ring-to-trophozoite development, trophozoite-to-schizont development and schizont rupture"}, {"measurement": "vacuolation in treated parasites", "setting": "[2]; Giemsa-stained thin smears", "result": "abnormal vacuolation; also recorded: induced vacuolation in parasites"}, {"measurement": "neutral lipid bodies / vacuolar lipid uptake (Oil red O)", "setting": "[3]", "result": "devoid of neutral lipid bodies"}]}]}
